This note sets out measurements from patent US20230026163A1, “ANTICANCER COMPOUND AND MEDICAL USE THEREOF” (ASCENTAWITS PHARMACEUTICALS, LTD., priority 2019, published 2023).

pIC50: −log10 of the molar value.

Data set [1] deals with H460 non-small cell lung cancer. The data set can be described thus: Cytotoxicity test of human tumor cell line in vitro (CTG, 72 hours). The format is cell-based. The following applies: for pIC50: Homo sapiens, NCI-H460, H460, 72 hours exposure; for Anticancer activity compared to the compound of control 2: H460. The protocol:
IC50 values were obtained by the following methods. The cancer cells were exposed to various concentrations of compounds for 72 hours. Following by washing steps, fresh medium was added to allow the growth of the cancer cells. The cancer cells were stained to obtain cell viability. Then, comparisons were made with the medium-only control.
Specifically, the exponentially growing cells were seeded in 96-well plates at a density of 2×10^3 cells/well, and 100 μL/well. The cells were incubated for 24 hours at 37° C., in 5% CO2, in 95% air, and 100% relative humidity. Next, 99 μL of culture medium was added. The compounds were dissolved in 100% DMSO at 200 times the desired final test concentration. Upon addition of compounds, the compounds were further diluted to 4 times the desired final concentration with a complete medium. Aliquots of 1 μL of compounds at specific concentration were added to the micro-wells containing 199 μL of medium to obtain the final compound concentrations as reported. After the compounds were added, the plates were incubated for an addition 72 hours at 37° C., in 5% CO2, in 95% air, and 100% relative humidity.
The plates to be test containing the cells were equilibrated at room temperature for 30 minutes, and 100 μL of medium per well was discarded. 100 μL of CTG reagent (CelltiterGlo Kit) was added to each well. The plates were placed in a fast-shaker to shake for 2 minutes, and placed at room temperature for 30 minutes in the dark. Chemoluminescence signal values were read with Envision instrument.

In the next data set the target is P-glycoprotein (Homo sapiens, UniProt P08183). The data set can be described thus: in vitro. The following applies: for Papp A→B at 2 h / Papp B→A at 2 h / recovery at 2 h: dog; for Papp A→B at 2 h / Papp B→A at 2 h: MDCK-MDR1; for P-glycoprotein substrate (experimental conclusion): with vs without Verapamil. The protocol: MDCKII-MDR1 cells were incubated in cell culture flasks. The incubator was set at 37° C., 5% CO2, and a guaranteed relative humidity of 95%. When the cells reached 70 to 90% confluence, the cells may be seeded to transwells.
50 μL of the cell suspensions were added to the apical chambers of each well of the 96-well transwells at a final seeding density of 5.45×10^5 cells/cm^2.
MDCKII-MDR1 cells may be fully confluent and differentiated after 4 to 8 days of incubation. At this time, the cells may be applied to penetration test. The monolayer membrane resistance was measured with a resistance meter (Millipore), and the resistance per well was recorded. After the test, the transwells were returned to the incubator.
The transwells with MDCKII-MDR1 cells were taken from the incubator. The cell monolayers were rinsed twice with buffer and incubated at 37° C. for 30 minutes.
The rate of the compounds from an apical end to a basolateral end was determined. 75 μL of the buffer containing the test sample was added to each well of the apical chambers (apical end), and 235 μL of the buffer was added to each well of the basolateral chambers (basolateral end).
The rate of the compounds transporting from the basolateral end to the apical end was determined. 75 μL of the buffer was added to the apical chambers (apical end), and 235 μL of the buffer containing the test sample was added to the basolateral chamber (basolateral end).
After the apical chambers and the basolateral chambers were combined respectively, the transwells were incubated at 37° C. for 2 hours.
After incubation, 50 μL of the sample from each well of the apical chambers and the basolateral chambers of the transwells was transferred to new sample tubes respectively. 200 μL of acetonitrile (100 nM of Alprazolam, 200 nM of Labetalol, 200 nM of caffeine, and 2 μM of Ketoprofen) as an internal standard was added to the sample tubes, vortexed for 10 minutes, and centrifuged at 3220 g for 30 minutes. 100 μL of the supernatant was taken and diluted with an equal volume of water for LC-MS/MS analysis. Each sample was incubated in triplicate.
Peak-areas were calculated from ion chromatography results. The apparent permeability coefficient (Papp, unit: cm/s×10-6) of the compounds was calculated by the following formula.
In the formula, VA was the volume of the solution at the acceptor end (Ap→B1 was 0.235 mL, and B1→Ap was 0.075 mL), Area was the membrane area (0.143 cm^2) of 96-well transwell, time was the incubation time (unit: s), [drug]acceptor referred to the drug concentration of the acceptor end after incubation, and [drug]initial,donor referred to the initial concentration of the donor end before incubation.
Efflux ratio was calculated with the following formula.
In the formula, Papp(B_A) was the apparent permeability coefficient from the basolateral end to the apical end, and Papp(A-B) was the apparent permeability coefficient from the apical end to the basolateral end.
The recovery rate was calculated with the following formula.
In the formula, VA was the solution volume of the acceptor end (unit: mL), VD was the solution volume of the donor end (unit: mL), [drug]acceptor referred to the drug concentration of the acceptor end after incubation, and [drug]initial,donor referred to the initial concentration of the donor end before incubation.

Where [2] appears, read: MDCK-MDR1, Recovery (%) AP-BL, Verapamil 0 μM.
Setting [3] is: MDCK-MDR1, Recovery (%) AP-BL, Verapamil 100 μM.
Setting [4] is: MDCK-MDR1, Recovery (%) BL-AP, Verapamil 0 μM.
[5] abbreviates: MDCK-MDR1, Recovery (%) BL-AP, Verapamil 100 μM.

Chain of P-glycoprotein (P08183 whole entry): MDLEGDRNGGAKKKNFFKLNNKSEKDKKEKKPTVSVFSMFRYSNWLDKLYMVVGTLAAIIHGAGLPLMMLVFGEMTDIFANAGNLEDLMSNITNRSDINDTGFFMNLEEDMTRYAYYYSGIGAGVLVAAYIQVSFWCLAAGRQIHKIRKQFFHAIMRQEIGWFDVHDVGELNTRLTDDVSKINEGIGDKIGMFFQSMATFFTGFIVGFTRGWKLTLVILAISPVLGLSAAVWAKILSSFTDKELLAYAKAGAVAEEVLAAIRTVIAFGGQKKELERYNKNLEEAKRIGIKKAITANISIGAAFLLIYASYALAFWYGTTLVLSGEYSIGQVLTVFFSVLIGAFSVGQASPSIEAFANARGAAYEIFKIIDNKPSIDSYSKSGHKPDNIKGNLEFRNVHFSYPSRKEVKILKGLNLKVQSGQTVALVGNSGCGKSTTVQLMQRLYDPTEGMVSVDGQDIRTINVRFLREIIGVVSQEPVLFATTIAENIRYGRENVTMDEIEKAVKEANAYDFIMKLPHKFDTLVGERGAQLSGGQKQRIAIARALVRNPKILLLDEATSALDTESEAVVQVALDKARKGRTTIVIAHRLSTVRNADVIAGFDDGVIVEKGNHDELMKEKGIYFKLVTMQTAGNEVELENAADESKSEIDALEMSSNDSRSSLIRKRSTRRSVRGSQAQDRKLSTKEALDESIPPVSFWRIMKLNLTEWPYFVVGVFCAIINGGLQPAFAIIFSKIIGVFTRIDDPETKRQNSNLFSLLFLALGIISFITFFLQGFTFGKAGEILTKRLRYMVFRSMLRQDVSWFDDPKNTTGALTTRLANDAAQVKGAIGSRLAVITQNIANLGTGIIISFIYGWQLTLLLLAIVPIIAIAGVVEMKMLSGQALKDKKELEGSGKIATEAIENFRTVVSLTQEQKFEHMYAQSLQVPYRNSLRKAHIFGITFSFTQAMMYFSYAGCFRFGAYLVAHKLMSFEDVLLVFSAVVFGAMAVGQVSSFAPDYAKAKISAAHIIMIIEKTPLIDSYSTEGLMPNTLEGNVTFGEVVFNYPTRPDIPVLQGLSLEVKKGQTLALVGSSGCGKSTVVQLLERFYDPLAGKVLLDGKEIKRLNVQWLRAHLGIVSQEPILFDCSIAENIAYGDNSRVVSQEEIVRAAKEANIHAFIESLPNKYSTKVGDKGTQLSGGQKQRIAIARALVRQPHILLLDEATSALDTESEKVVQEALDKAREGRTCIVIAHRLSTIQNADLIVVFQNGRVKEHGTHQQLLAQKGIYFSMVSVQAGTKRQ

`O=[N+]([O-])c1ccc(COP(=O)(N2CC2)N2CC2)c2ccccc12` [Compound 02] gave a pIC50 in data set [1] of 6.12.

Regarding `CC(OP(=O)(N1CC1)N1CC1)c1ccc2cccc([N+](=O)[O-])c2c1` (stereo not drawn) [Compound 07], in data set [1], the pIC50 was 6.77.

`O=[N+]([O-])c1cccc2ccc(C(OP(=O)(N3CC3)N3CC3)C(F)(F)F)cc12` (stereo not drawn) [Compound 08] showed a pIC50 in data set [1] of 5.42. In the case of `CC(OP(=O)(N1CC1)N1CC1)c1ccc([N+](=O)[O-])c2ccncc12` (stereo not drawn) [Compound 13], in data set [1], the pIC50 is 7.89.

`O=[N+]([O-])c1cccc2cc(COP(=O)(N3CC3)N3CC3)ccc12` [Compound 24]: in data set [1], the pIC50 was 6.32.

In turn, `O=[N+]([O-])c1cccc2ccc(COP(=O)(N3CC3)N3CC3)cc12` [Compound 06] had a pIC50 in data set [1] of 6.76.

Consider `O=[N+]([O-])c1ccc(COP(=O)(N2CC2)N2CC2)c2ccncc12` [Compound 21], for which the negative logarithm of the IC50 (pIC50) in data set [1] was 8.14. For `O=[N+]([O-])c1ccc(C(OP(=O)(N2CC2)N2CC2)C(F)(F)F)c2ncccc12` (stereo not drawn) [Compound 16], in data set [1], the pIC50 was 7.46.

`O=[N+]([O-])c1c(C(OP(=O)(N2CC2)N2CC2)C(F)(F)F)ccc2ccccc12` (stereo not drawn) [Compound 05]: in data set [1], the “Anticancer activity compared to the compound of control 2” value was “obviously worse” and the pIC50 was 5.04.

`O=[N+]([O-])c1cccc2c(COP(=O)(N3CC3)N3CC3)cccc12` [Compound 09]: the pIC50 in data set [1] was 5.78. In the case of `CC(OP(=O)(N1CC1)N1CC1)c1ccc([N+](=O)[O-])c2cnccc12` (stereo not drawn) [Compound 14], the Papp A→B at 2 h at P-glycoprotein stood at 12.9 ×10⁻⁶ cm/s. The Papp B→A at 2 h on P-glycoprotein came out at 26.3 ×10⁻⁶ cm/s. For the same molecule, the recovery at 2 h on P-glycoprotein (setting [2]) stood at 91.1%; on P-glycoprotein (setting [3]), 80.8%; on P-glycoprotein (setting [4]) it was 104%; at P-glycoprotein (setting [5]) it was 90.8%. Further, the “P-glycoprotein substrate (experimental conclusion)” value at P-glycoprotein was “not P-glycoprotein substrates”. Also, the pIC50 in data set [1] was 8.42. Regarding `O=[N+]([O-])c1ccc(C(OP(=O)(N2CC2)N2CC2)C(F)(F)F)c2cccnc12` (stereo not drawn) [Compound 19], the pIC50 in data set [1] was 6.51. On P-glycoprotein, `O=[N+]([O-])c1ccc(COP(=O)(N2CC2)N2CC2)c2ncccc12` [Compound 20] had a Papp A→B at 2 h of 33.7 ×10⁻⁶ cm/s. Further, the Papp B→A at 2 h at P-glycoprotein worked out at 21.8 ×10⁻⁶ cm/s. Moreover, the recovery at 2 h stood at 92.7% on P-glycoprotein (setting [2]), 87.6% on P-glycoprotein (setting [3]), 96.3% on P-glycoprotein (setting [4]) and 96.2% on P-glycoprotein (setting [5]). Also, the “P-glycoprotein substrate (experimental conclusion)” value at P-glycoprotein is listed as “not P-glycoprotein substrates”. The negative-log IC50 (pIC50) in data set [1] was 7.38. Molecule `O=[N+]([O-])c1ccc(COP(=O)(N2CC2)N2CC2)c2cccnc12` [Compound 22] had a pIC50 in data set [1] of 6.70.

As for `CC(OP(=O)(N1CC1)N1CC1)c1ccc2ccccc2c1[N+](=O)[O-]` (stereo not drawn) [Compound 04], in data set [1], the “Anticancer activity compared to the compound of control 2” value is reported as “obviously worse” and the pIC50 is 5.03.

In data set [1], `O=[N+]([O-])c1cc(COP(=O)(N2CC2)N2CC2)cc2ccccc12` [Compound 25] had a pIC50 of 6.97. On the same count and under the same terms, the same measure for `O=[N+]([O-])c1cccc2c(C(OP(=O)(N3CC3)N3CC3)C(F)(F)F)cccc12` (stereo not drawn) [Compound 11]: 5.12.

On to `CC(OP(=O)(N1CC1)N1CC1)c1ccc([N+](=O)[O-])c2ncccc12` (stereo not drawn) [Compound 15], for which, in data set [1], the pIC50 was 6.84. In turn, `CC(OP(=O)(N1CC1)N1CC1)c1cccc2c([N+](=O)[O-])cccc12` (stereo not drawn) [Compound 10] showed a pIC50 in data set [1] of 6.16.

In turn, `O=[N+]([O-])c1ccc(C(OP(=O)(N2CC2)N2CC2)C(F)(F)F)c2ccncc12` (stereo not drawn) [Compound 18] gave a pIC50 in data set [1] of 8.10. On P-glycoprotein, `COCCc1ccc(OCC(O)CNC(C)C)cc1` (stereo not drawn) [Metoprolol, reference compound] showed an apparent permeability from apical to basolateral (Papp A→B) at 2 h of 26 ×10⁻⁶ cm/s and a Papp B→A at 2 h of 18.9 ×10⁻⁶ cm/s. In data set [1], `CC(OP(=O)(N1CC1)N1CC1)c1ccc([N+](=O)[O-])c2cccnc12` (stereo not drawn) [Compound 12] had a pIC50 of 7.45.

A word on the pIC50: it is −log10 of the IC50, conventionally taken in molar units. Lower therefore signals a high IC50. One may read the Papp A→B as how fast a substance crosses the layer from the apical side. Read a low Papp A→B as poor permeation. What is called Papp B→A is the apparent permeability from the basolateral to the apical side of a cell layer.
